Laboratory results taken from publication PMC7846792, “Perception of a divergent family of phytocytokines by the Arabidopsis receptor kinase MIK2” (Nature Communications, 2021).
Blank lines part the entries; values can stand above or below the substance they belong to. No end group written: not given here.

How the values were obtained:
A. thaliana seedlings = assay: Seedling growth inhibition (fresh weight); assay type: in vivo, Arabidopsis thaliana; details: mock mean = 1
Experimental: Four-day-old seedlings growing on MS plates were transferred individually into separate wells of transparent 48-well tissue culture plates (Greiner Bio-One) containing 500 μL of liquid MS media with/without elicitor addition. The plates were then transferred back to the growth conditions for an additional 10 days before seedlings were blot-dried and weighed.

[1] = target: MIK2 ectodomain (MIK2^ECD, residues 1–709) (Arabidopsis thaliana) (UniProt Q8VZG8); assay: ITC; 200 μM SCOOP12 in the syringe injected into 20 μM MIK2 ectodomain in the cell; 25 °C; 20 mM sodium citrate pH 5.0, 150 mM NaCl; N fitted to 1
MIK2 ectodomain (MIK2^ECD, residues 1–709) (Arabidopsis thaliana), sequence (Q8VZG8 44-709): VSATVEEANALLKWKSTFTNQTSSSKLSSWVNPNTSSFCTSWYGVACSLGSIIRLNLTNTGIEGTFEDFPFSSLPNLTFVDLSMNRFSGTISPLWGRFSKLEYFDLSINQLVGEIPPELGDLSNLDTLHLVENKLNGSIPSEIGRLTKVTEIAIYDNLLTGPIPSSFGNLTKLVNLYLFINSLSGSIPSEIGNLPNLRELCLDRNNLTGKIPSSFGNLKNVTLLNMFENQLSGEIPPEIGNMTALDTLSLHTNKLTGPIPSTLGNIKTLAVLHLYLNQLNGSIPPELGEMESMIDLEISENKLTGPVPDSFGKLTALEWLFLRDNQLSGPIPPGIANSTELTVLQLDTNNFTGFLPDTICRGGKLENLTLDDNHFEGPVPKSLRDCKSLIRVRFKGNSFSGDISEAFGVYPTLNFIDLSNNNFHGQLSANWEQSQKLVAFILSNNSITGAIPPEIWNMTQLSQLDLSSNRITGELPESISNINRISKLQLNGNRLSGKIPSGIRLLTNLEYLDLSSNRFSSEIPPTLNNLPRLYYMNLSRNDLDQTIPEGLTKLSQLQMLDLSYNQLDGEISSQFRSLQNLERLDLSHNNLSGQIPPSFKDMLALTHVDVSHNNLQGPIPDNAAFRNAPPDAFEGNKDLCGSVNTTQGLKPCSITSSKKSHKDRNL

Substance: ETPPSRSRRGGGG [SCOOP1]
Seedling fresh weight (Fig3C), relative to mock (A. thaliana seedlings; Col-0, 1 μM, replicate 1): 0.767 | Seedling fresh weight (Fig3C), relative to mock (A. thaliana seedlings; Col-0, 1 μM, replicate 2): 0.7214 | Seedling fresh weight (Fig3C), relative to mock (A. thaliana seedlings; Col-0, 1 μM, replicate 3): 0.5418 | Seedling fresh weight (Fig3C), relative to mock (A. thaliana seedlings; Col-0, 1 μM, replicate 4): 0.6909 | Seedling fresh weight (Fig3C), relative to mock (A. thaliana seedlings; Col-0, 1 μM, replicate 5): 0.3379 | Seedling fresh weight (Fig3C), relative to mock (A. thaliana seedlings; Col-0, 1 μM, replicate 6): 0.5266 | Seedling fresh weight (Fig3C), relative to mock (A. thaliana seedlings; Col-0, 1 μM, replicate 7): 0.5662 | Seedling fresh weight (Fig3C), relative to mock (A. thaliana seedlings; Col-0, 1 μM, replicate 8): 0.6453 | Seedling fresh weight (Fig3C), relative to mock (A. thaliana seedlings; Col-0, 1 μM, replicate 9): 0.5753 | Seedling fresh weight (Fig3C), relative to mock (A. thaliana seedlings; Col-0, 1 μM, replicate 10): 0.5996 | Seedling fresh weight (Fig3C), relative to mock (A. thaliana seedlings; Col-0, 1 μM, replicate 11): 0.6118 | Seedling fresh weight (Fig3C), relative to mock (A. thaliana seedlings; Col-0, 1 μM, replicate 12): 0.4961 | Seedling fresh weight (Fig3C), relative to mock (A. thaliana seedlings; Col-0, 10 μM, replicate 1): 0.2426 | Seedling fresh weight (Fig3C), relative to mock (A. thaliana seedlings; Col-0, 10 μM, replicate 2): 0.2002 | Seedling fresh weight (Fig3C), relative to mock (A. thaliana seedlings; Col-0, 10 μM, replicate 3): 0.1668 | Seedling fresh weight (Fig3C), relative to mock (A. thaliana seedlings; Col-0, 10 μM, replicate 4): 0.1698 | Seedling fresh weight (Fig3C), relative to mock (A. thaliana seedlings; Col-0, 10 μM, replicate 5): 0.06065 | Seedling fresh weight (Fig3C), relative to mock (A. thaliana seedlings; Col-0, 10 μM, replicate 6): 0.1729 | Seedling fresh weight (Fig3C), relative to mock (A. thaliana seedlings; Col-0, 10 μM, replicate 7): 0.1759 | Seedling fresh weight (Fig3C), relative to mock (A. thaliana seedlings; Col-0, 10 μM, replicate 8): 0.2305 | Seedling fresh weight (Fig3C), relative to mock (A. thaliana seedlings; Col-0, 10 μM, replicate 9): 0.2092 | Seedling fresh weight (Fig3C), relative to mock (A. thaliana seedlings; Col-0, 10 μM, replicate 10): 0.1607 | Seedling fresh weight (Fig3C), relative to mock (A. thaliana seedlings; Col-0, 10 μM, replicate 11): 0.2244 | Seedling fresh weight (Fig3C), relative to mock (A. thaliana seedlings; Col-0, 10 μM, replicate 12): 0.2032 | Seedling fresh weight (Fig3C), relative to mock (A. thaliana seedlings; mik2-1, 1 μM, replicate 1): 1.15 | Seedling fresh weight (Fig3C), relative to mock (A. thaliana seedlings; mik2-1, 1 μM, replicate 2): 1.076 | Seedling fresh weight (Fig3C), relative to mock (A. thaliana seedlings; mik2-1, 1 μM, replicate 3): 1.026 | Seedling fresh weight (Fig3C), relative to mock (A. thaliana seedlings; mik2-1, 1 μM, replicate 4): 1.019 | Seedling fresh weight (Fig3C), relative to mock (A. thaliana seedlings; mik2-1, 1 μM, replicate 5): 1.076 | Seedling fresh weight (Fig3C), relative to mock (A. thaliana seedlings; mik2-1, 1 μM, replicate 6): 0.9888 | Seedling fresh weight (Fig3C), relative to mock (A. thaliana seedlings; mik2-1, 1 μM, replicate 7): 1.049 | Seedling fresh weight (Fig3C), relative to mock (A. thaliana seedlings; mik2-1, 1 μM, replicate 8): 1.026 | Seedling fresh weight (Fig3C), relative to mock (A. thaliana seedlings; mik2-1, 1 μM, replicate 9): 0.9619 | Seedling fresh weight (Fig3C), relative to mock (A. thaliana seedlings; mik2-1, 1 μM, replicate 10): 0.9215 | Seedling fresh weight (Fig3C), relative to mock (A. thaliana seedlings; mik2-1, 1 μM, replicate 11): 0.9619 | Seedling fresh weight (Fig3C), relative to mock (A. thaliana seedlings; mik2-1, 1 μM, replicate 12): 0.9922 | Seedling fresh weight (Fig3C), relative to mock (A. thaliana seedlings; mik2-1, 10 μM, replicate 1): 1.089 | Seedling fresh weight (Fig3C), relative to mock (A. thaliana seedlings; mik2-1, 10 μM, replicate 2): 0.9298 | Seedling fresh weight (Fig3C), relative to mock (A. thaliana seedlings; mik2-1, 10 μM, replicate 3): 0.9231 | Seedling fresh weight (Fig3C), relative to mock (A. thaliana seedlings; mik2-1, 10 μM, replicate 4): 0.9738 | Seedling fresh weight (Fig3C), relative to mock (A. thaliana seedlings; mik2-1, 10 μM, replicate 5): 0.9332 | Seedling fresh weight (Fig3C), relative to mock (A. thaliana seedlings; mik2-1, 10 μM, replicate 6): 0.9028 | Seedling fresh weight (Fig3C), relative to mock (A. thaliana seedlings; mik2-1, 10 μM, replicate 7): 1.008 | Seedling fresh weight (Fig3C), relative to mock (A. thaliana seedlings; mik2-1, 10 μM, replicate 8): 0.9704 | Seedling fresh weight (Fig3C), relative to mock (A. thaliana seedlings; mik2-1, 10 μM, replicate 9): 1.085 | Seedling fresh weight (Fig3C), relative to mock (A. thaliana seedlings; mik2-1, 10 μM, replicate 10): 1.031 | Seedling fresh weight (Fig3C), relative to mock (A. thaliana seedlings; mik2-1, 10 μM, replicate 11): 0.9569 | Seedling fresh weight (Fig3C), relative to mock (A. thaliana seedlings; mik2-1, 10 μM, replicate 12): 0.967

Kd [1]: 4.6 µM
Substance: SERINE RICH ENDOGENOUS PEPTIDE 12 (SCOOP12) synthetic peptide
